The text below walks through data of patent US20210382068A1, “HLA SINGLE ALLELE LINES” (priority 2018, published 2021).

The test system of data set [1] is advanced hormone refractory prostate cancer patients. As to conditions: cited from earlier work.
A further data set has as its system healthy human volunteers. As to conditions: 8 subjects with one single s.c. administration versus 4 subjects receiving placebo; cited from earlier work.
For data set [2] the following is noted: more than 25 clinical trials; cited from earlier work.
For data set [3], the system named is ovarian carcinoma patients. As to conditions: cited from earlier work.
The subject of data set [4] is patient tumor cell lines (MEL, GBM, ccRCC). Nature of the data set: IFNγ stimulation of patient tumor cell lines, HLA-bound peptides by IP/MS. To be noted: IFNγ-matched samples, 2000 Unit/ml IFNg for 3 days. It counts as cell-based, human.

As to `C[C@]12CC[C@@H]3c4ccc(OC(=O)N(CCCl)CCCl)cc4CC[C@H]3[C@@H]1CC[C@@H]2O` [estramustine], the “patients with >50% decrease in serum prostate specific antigen (PSA)” value in data set [1] is 54%.

“Polyinosinic-Polycytidylic Acid-poly-L-lysine Carboxymethylcellulose [poly-ICLC]”: the “differential expression of genes versus placebo” value in the data set with healthy human volunteers is on record as “up to 212 genes”. Also, the toxicity profile entry in data set [2] is on record as “relatively benign toxicity profile”. For the same molecule, the “generation of NY-ESO-1-specific CD4+ and CD8+ T-cell and antibody responses” value in data set [3] (1.4 mg poly-ICLC and Montanide added, compared to OLP alone or OLP and Montanide) was “markedly enhanced”. Further, the “patients showing induction of CD4+ and CD8+ T cell, as well as antibody responses to the peptide” value in data set [3] (poly-ICLC in combination with NY-ESO-1 peptide vaccine, in addition to Montanide, phase 1) is given as above 90%.

B1: IFNγ: interferon gamma (Peprotech) used to stimulate cultured tumor cells (protein, UniProt P01579 24-161, looked up)
Interferon gamma: QDPYVKEAENLKKYFNAGHSDVADNGTLFLGILKNWKEESDRKIMQSQIVSFYFKLFKNFKDDQSIQKSVETIKEDMNVKFFNSNKKKRDDFEKLTNYSVTDLNVQRKAIHELIQVMAELSPAAKTGKRKRSQMLFRG
Turning to B1, the “increase in peptides derived from IFNγ-response genes post stimulation” value in data set [4] is recorded as 2.4-5.6%.
